Reference: US20260069588A1, “VEPDEGESTRANT FOR USE IN TREATING CANCER” (Arvinas Operation, Inc., priority 2022, published 2026)

Columns and labels:
[1] = FIH Study Parts A and B combined: adverse events; format: in vivo, human
Excerpt: Preliminary safety data from Part B (monotherapy dose expansion) is consistent with what has been observed in Part A (monotherapy dose escalation).

[2] = system: ER+/HER2− locally advanced or metastatic breast cancer; test: FIH Study Part A: clinical activity (CBR, ORR); format: in vivo, human
Excerpt: Based on a 6 Jun. 2023 data cut-off, evidence of preliminary clinical activity was observed, as assessed by CBR and ORR, in the monotherapy Part A dose escalation cohort of the FIH Study.
Per protocol, the CBR evaluable analysis set included all treated patients who were enrolled at least 24 weeks prior to the data cut-off of analysis. CBR was defined as a confirmed CR or PR per RECIST v1.1 or SD with a minimum duration of 24 weeks.
Per protocol, the response-evaluable analysis set included all treated patients who had measurable disease at baseline and ORR was based on confirmed responses per RECIST v1.1.

T47D cells = test: Live-cell imaging proliferation, T47D; format: cell-based; settings: Homo sapiens, 144 h, up to 6 days
Excerpt: Full growth of the cells over this time period is shown by extent of cell confluence with dimethyl sulfoxide (DMSO).

GR = GR (Homo sapiens, UniProt P04150); test: Secondary pharmacodynamics binding, GR; settings: in vitro
Sequence of GR (P04150 whole entry): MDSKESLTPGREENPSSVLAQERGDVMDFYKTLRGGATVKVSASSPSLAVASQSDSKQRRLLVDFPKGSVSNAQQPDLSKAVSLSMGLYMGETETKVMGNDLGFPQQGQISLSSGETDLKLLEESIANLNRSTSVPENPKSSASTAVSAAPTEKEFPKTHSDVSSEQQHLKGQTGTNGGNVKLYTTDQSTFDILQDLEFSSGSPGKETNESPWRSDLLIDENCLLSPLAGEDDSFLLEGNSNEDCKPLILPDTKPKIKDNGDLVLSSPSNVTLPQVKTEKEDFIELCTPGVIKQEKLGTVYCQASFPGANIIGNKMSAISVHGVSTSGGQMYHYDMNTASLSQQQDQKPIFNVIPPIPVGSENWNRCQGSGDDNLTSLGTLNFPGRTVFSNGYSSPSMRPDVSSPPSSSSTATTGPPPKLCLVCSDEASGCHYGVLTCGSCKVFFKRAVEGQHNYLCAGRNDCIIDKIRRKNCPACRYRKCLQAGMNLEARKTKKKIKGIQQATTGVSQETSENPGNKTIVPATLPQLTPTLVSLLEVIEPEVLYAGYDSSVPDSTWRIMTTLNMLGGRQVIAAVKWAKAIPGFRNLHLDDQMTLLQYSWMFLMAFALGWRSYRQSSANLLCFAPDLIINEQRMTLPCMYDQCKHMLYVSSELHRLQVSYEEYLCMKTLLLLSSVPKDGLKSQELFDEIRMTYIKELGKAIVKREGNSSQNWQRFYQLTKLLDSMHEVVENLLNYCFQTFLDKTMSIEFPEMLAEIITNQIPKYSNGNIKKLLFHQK

opioid kappa receptor = opioid kappa receptor (Homo sapiens, UniProt P41145); test: Secondary pharmacodynamics binding, opioid kappa receptor; settings: in vitro
Sequence of opioid kappa receptor (P41145 whole entry): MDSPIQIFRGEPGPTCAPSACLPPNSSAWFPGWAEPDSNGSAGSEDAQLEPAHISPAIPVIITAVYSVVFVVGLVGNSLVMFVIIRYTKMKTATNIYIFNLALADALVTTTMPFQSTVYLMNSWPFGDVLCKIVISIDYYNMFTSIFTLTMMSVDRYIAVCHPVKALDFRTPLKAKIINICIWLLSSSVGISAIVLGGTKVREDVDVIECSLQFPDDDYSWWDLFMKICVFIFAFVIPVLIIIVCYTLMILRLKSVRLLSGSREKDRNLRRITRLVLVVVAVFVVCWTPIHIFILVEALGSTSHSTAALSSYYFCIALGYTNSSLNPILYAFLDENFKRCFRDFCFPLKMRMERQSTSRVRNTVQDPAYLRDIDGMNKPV

CK1α = CK1α (Homo sapiens, UniProt P48729); test: Cereblon neomorphic substrate degradation, CK1α; format: cell-based; settings: in vitro
Sequence of CK1α (Q96SW2 whole entry partner): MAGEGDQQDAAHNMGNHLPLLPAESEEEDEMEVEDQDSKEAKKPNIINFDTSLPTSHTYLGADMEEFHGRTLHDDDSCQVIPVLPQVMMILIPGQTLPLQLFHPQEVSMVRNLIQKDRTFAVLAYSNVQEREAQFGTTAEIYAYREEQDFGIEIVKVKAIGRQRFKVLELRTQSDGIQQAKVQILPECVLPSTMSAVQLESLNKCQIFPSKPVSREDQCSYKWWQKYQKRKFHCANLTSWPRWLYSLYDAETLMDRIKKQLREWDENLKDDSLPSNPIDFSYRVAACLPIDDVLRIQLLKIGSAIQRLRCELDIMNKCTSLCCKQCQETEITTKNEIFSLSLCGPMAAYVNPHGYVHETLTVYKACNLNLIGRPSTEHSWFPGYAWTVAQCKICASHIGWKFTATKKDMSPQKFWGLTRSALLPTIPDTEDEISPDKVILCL
Sequence of CK1α (Q16531 whole entry partner): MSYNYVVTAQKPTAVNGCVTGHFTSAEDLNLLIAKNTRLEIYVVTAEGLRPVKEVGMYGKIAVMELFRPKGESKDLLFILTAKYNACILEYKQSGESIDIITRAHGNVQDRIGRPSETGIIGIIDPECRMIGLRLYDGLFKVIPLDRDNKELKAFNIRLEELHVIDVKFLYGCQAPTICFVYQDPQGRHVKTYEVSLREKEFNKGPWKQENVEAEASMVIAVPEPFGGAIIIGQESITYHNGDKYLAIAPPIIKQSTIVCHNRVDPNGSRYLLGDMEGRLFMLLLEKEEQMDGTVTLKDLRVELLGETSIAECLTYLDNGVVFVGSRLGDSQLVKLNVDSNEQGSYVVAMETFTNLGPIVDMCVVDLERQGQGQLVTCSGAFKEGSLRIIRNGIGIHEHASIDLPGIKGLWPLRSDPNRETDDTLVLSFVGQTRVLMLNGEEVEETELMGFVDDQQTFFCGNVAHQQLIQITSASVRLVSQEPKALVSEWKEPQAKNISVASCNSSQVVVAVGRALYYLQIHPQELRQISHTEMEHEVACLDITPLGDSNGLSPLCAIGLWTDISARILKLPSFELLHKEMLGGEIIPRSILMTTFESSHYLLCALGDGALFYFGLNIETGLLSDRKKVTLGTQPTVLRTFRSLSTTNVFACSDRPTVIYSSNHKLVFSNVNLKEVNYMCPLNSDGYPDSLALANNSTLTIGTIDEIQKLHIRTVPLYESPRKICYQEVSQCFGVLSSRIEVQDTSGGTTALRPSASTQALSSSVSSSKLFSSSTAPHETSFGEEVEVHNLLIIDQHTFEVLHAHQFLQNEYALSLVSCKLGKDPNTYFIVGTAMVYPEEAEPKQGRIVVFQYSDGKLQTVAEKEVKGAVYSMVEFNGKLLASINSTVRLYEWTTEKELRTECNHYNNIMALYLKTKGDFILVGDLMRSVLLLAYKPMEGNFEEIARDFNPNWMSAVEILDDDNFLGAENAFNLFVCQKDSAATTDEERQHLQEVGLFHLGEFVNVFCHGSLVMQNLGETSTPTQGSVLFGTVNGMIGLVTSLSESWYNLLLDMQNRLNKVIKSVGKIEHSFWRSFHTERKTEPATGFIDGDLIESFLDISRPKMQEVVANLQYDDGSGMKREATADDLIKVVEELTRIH
Sequence of CK1α (P48729 whole entry): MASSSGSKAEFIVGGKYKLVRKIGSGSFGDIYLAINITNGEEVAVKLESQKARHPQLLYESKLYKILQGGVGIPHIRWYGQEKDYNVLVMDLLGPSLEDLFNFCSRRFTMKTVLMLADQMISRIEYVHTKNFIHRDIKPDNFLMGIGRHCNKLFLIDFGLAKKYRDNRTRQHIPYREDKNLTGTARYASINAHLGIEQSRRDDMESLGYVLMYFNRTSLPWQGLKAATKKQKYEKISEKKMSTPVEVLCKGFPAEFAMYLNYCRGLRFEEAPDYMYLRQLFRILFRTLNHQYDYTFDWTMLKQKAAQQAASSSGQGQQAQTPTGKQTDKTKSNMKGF
Excerpt: These drugs bind to cereblon and promote the degradation of novel (neomorphic) substrates.

[3] = GLP cardiovascular telemetry study in beagle dogs with TK phase; format: in vivo, dog
Procedure: A lead-in single-dose TK and tolerability study conducted prior to the telemetry study indicated approximately dose-proportional increase in exposure between 200 and 400 mg/kg in the dog.

[4] = 3-month GLP oral toxicity study in rats; format: in vivo, rat; settings: for AUC(0-t) / Cmax: po, 300 mg/kg/day
Procedure: Male and female rats, 10/sex/group, were administered 0 (vehicle), 30, 100, or 300 mg/kg/day. Assessment of toxicity was based on mortality, clinical observations, BWs, food consumption, ophthalmic examinations, and clinical and anatomic pathology. Blood samples for TK were obtained from a satellite group of animals.

[5] = Tablet performance in fed and fasted dogs; format: in vivo, dog; settings: 50 mg tablet QD, fed vs fasted
Procedure: For 6 days, dogs received a single 50 mg tablet QD after pre-treatment with pentagastrin. Little accumulation was observed over the course of the study. In addition, exposure in chow-fed dogs was similar to that obtained for solution formulations administered at a similar dose. To reduce the pill burden, a 100 mg tablet was developed and when tested in dogs, similar exposure was observed when dogs were dosing with a 50 mg tablet.

[6] = Plasma protein binding, dog; format: in vitro ADME; settings: read-out: free fraction
[7] = Turnover in liver microsomes and hepatocytes; format: in vitro ADME; settings: across species
Excerpt: No human unique metabolites were observed. Although it is not thought to be formed via enzymatic conversion, the epimer Compound B was formed to a limited extent in animals.

[8] = Preliminary embryo-fetal development study
[9] = both sexes, beagle, plasma, dog n=8, 400 mg/kg single oral, TK phase
[10] = female, Sprague-Dawley, rat, in vivo, oral, 30 mg/kg/day

O=C1CC[C@H](N2Cc3cc(N4CCN(CC5CCN(c6ccc([C@@H]7c8ccc(O)cc8CC[C@@H]7c7ccccc7)cc6)CC5)CC4)ccc3C2=O)C(=O)N1 [Compound A, (S)-3-(5-(4-((1-(4-((1R,2S)-6-hydroxy-2-phenyl-1,2,3,4-tetrahydronaphthalen-1-yl)phenyl)piperidin-4-yl)methyl)piperazin-1-yl)-1-oxoisoindolin-2-yl)piperidine-2,6-dione]
patients with TEAEs ([1]; 143 of 154, as of 6 Jun 2023): 92.9%
Any treatment-emergent AE, Any Grade ([1]; Part A + B, N=154): 143 (92.9) n (%)
Any treatment-emergent AE, Grade 3+ ([1]; Part A + B, N=154): 40 (26.0) n (%)
Any treatment-related AE, Any Grade ([1]; Part A + B, N=154): 114 (74.0) n (%)
Any treatment-related AE, Grade 3+ ([1]; Part A + B, N=154): 12 (7.8) n (%)
TEAE Anemia, Any Grade ([1]; Part A + B, N=154): 16 (10.4) n (%)
TEAE Anemia, Grade 3+ ([1]; Part A + B, N=154): 2 (1.3) n (%)
TEAE Arthralgia, Any Grade ([1]; Part A + B, N=154): 34 (22.1) n (%)
TEAE Arthralgia, Grade 3+ ([1]; Part A + B, N=154): 2 (1.3) n (%)
TEAE Aspartate aminotransferase increased, Any Grade ([1]; Part A + B, N=154): 21 (13.6) n (%)
TEAE Aspartate aminotransferase increased, Grade 3+ ([1]; Part A + B, N=154): 3 (1.9) n (%)
TEAE Back pain, Any Grade ([1]; Part A + B, N=154): 21 (13.6) n (%)
TEAE Back pain, Grade 3+ ([1]; Part A + B, N=154): 2 (1.3) n (%)
TEAE Constipation, Any Grade ([1]; Part A + B, N=154): 41 (26.6) n (%)
TEAE Constipation, Grade 3+ ([1]; Part A + B, N=154): 0 n (%)
TEAE Decreased appetite, Any Grade ([1]; Part A + B, N=154): 24 (15.6) n (%)
TEAE Decreased appetite, Grade 3+ ([1]; Part A + B, N=154): 1 (0.6) n (%)
TEAE Diarrhea, Any Grade ([1]; Part A + B, N=154): 19 (12.3) n (%)
TEAE Diarrhea, Grade 3+ ([1]; Part A + B, N=154): 0 n (%)
TEAE Fatigue, Any Grade ([1]; Part A + B, N=154): 62 (40.3) n (%)
TEAE Fatigue, Grade 3+ ([1]; Part A + B, N=154): 2 (1.3) n (%)
TEAE Headache, Any Grade ([1]; Part A + B, N=154): 25 (16.2) n (%)
TEAE Headache, Grade 3+ ([1]; Part A + B, N=154): 1 (0.6) n (%)
TEAE Hot flush, Any Grade ([1]; Part A + B, N=154): 24 (15.6) n (%)
TEAE Hot flush, Grade 3+ ([1]; Part A + B, N=154): 0 n (%)
TEAE Hyperglycemia, Any Grade ([1]; Part A + B, N=154): 16 (10.4) n (%)
TEAE Hyperglycemia, Grade 3+ ([1]; Part A + B, N=154): 0 n (%)
TEAE Nausea, Any Grade ([1]; Part A + B, N=154): 46 (29.9) n (%)
TEAE Nausea, Grade 3+ ([1]; Part A + B, N=154): 1 (0.6) n (%)
TEAE Pain in extremity, Any Grade ([1]; Part A + B, N=154): 17 (11.0) n (%)
TEAE Pain in extremity, Grade 3+ ([1]; Part A + B, N=154): 0 n (%)
TEAE Vomiting, Any Grade ([1]; Part A + B, N=154): 20 (13.0) n (%)
TEAE Vomiting, Grade 3+ ([1]; Part A + B, N=154): 0 n (%)
TRAE Arthralgia, Any Grade ([1]; Part A + B, N=154): 22 (14.3) n (%)
TRAE Arthralgia, Grade 3+ ([1]; Part A + B, N=154): 0 n (%)
TRAE Constipation, Any Grade ([1]; Part A + B, N=154): 16 (10.4) n (%)
TRAE Constipation, Grade 3+ ([1]; Part A + B, N=154): 0 n (%)
TRAE Fatigue, Any Grade ([1]; Part A + B, N=154): 48 (31.2) n (%)
TRAE Fatigue, Grade 3+ ([1]; Part A + B, N=154): 1 (0.6) n (%)
TRAE Hot flush, Any Grade ([1]; Part A + B, N=154): 20 (13.0) n (%)
TRAE Hot flush, Grade 3+ ([1]; Part A + B, N=154): 0 n (%)
TRAE Nausea, Any Grade ([1]; Part A + B, N=154): 36 (23.4) n (%)
TRAE Nausea, Grade 3+ ([1]; Part A + B, N=154): 1 (0.6) n (%)
TEAE Arthralgia ([1]; Parts A and B, N=154): 22.1%
TEAE Aspartate aminotransferase increased ([1]; Parts A and B, N=154): 13.6%
TEAE Back pain ([1]; Parts A and B, N=154): 13.6%
TEAE Constipation ([1]; Parts A and B, N=154): 26.6%
TEAE Decreased appetite ([1]; Parts A and B, N=154): 15.6%
TEAE Diarrhea ([1]; Parts A and B, N=154): 12.3%
TEAE Fatigue ([1]; Parts A and B, N=154): 40.3%
TEAE Headache ([1]; Parts A and B, N=154): 16.2%
TEAE Nausea ([1]; Parts A and B, N=154): 29.9%
TEAE Pain in extremity ([1]; Parts A and B, N=154): 11.0%
TEAE Vomiting ([1]; Parts A and B, N=154): 13.0%
TEAE anemia ([1]; Parts A and B, N=154): 10.4%
TEAE hot flush ([1]; Parts A and B, N=154): 15.6%
TEAE hyperglycaemia ([1]; Parts A and B, N=154): 10.4%
TRAE Arthralgia ([1]; Parts A and B, N=154): 14.3%
TRAE Constipation ([1]; Parts A and B, N=154): 10.4%
TRAE Fatigue ([1]; Parts A and B, N=154): 31.2%
TRAE Nausea ([1]; Parts A and B, N=154): 23.4%
TRAE hot flush ([1]; Parts A and B, N=154): 13.0%
ORR ([2]; 7 of 61 response-evaluable, confirmed PR, 95% CI 4.7%, 22.2%): 11.5%
CBR ([2]; 30 of 83 evaluable patients, 95% CI 25.9%, 47.4%, cut-off 6 Jun 2023): 36.1%
CBR ([2]; Phase 1, ESR1-mutant tumors): 50%
CBR ([2]; Phase 1, all patients): 40%
GI50 (T47D cells): 1.7 nM
binding (GR): bound
binding (opioid kappa receptor): bound
degradation of CK1α (CK1α): did not degrade
Cmax [3, 9]: 16000 ng/mL
Tmax [3, 9]: 5.1 h
AUC(0-t) ([3]; both sexes, beagle, plasma, dog n=8, 400 mg/kg single oral, TK phase, read-out: mean AUC0-24): 272000 ng·h/mL
QT- or QTc-interval ([3]; dog, 400 mg/kg): no changes in QT- or QTc-interval
shortening of the PR interval ([3]; dog, 400 mg/kg, 1 to 3.25 hours postdose): 7 ms
cardiovascular effects ([3]; dog, single oral 90 and 200 mg/kg): No Compound A-related effects were noted
sex differences in Cmax and AUC0-24 ([4]; both, rat, in vivo): less than 2 fold
NOAEL ([4]; female rats, 3 months oral): a NOAEL was not determined
AUC(0-t) ([4]; female, rat, in vivo): 75000 ng·h/mL
Cmax ([4]; female, rat, in vivo): 3710 ng/mL
AUC(0-t) ([4]; male, rat, in vivo): 88500 ng·h/mL
Cmax ([4]; male, rat, in vivo): 4330 ng/mL
NOAEL at 3 months ([4]; rat, in vivo, male rats, 3 months oral): 300 mg/kg/day
increase in AUC in fed dogs [5]: 3 fold
fraction unbound at 1 μM [6]: 0.026
turnover in liver microsomes and hepatocytes [7]: relatively low turnover
TK animals confirmed pregnant at GD 18 ([8]; 30 mg/kg): 5/6
females with pregnancy confirmed at GD 21 ([8]; 30 mg/kg): 7/8
post implantation loss ([8]; 30 mg/kg/day): 47.31%
mean number of live fetuses ([8]; 30 mg/kg/day, controls 11.3): 7.0 live fetuses/litter
TK animals confirmed pregnant at GD 18 ([8]; 100 mg/kg): 3/6
females with pregnancy confirmed at GD 21 ([8]; 100 mg/kg): 4/8
mean number of live fetuses ([8]; 100 mg/kg/day): no live fetuses/litter
post implantation loss ([8]; 100 mg/kg/day): 100%
TK animals confirmed pregnant at GD 18 ([8]; 300 mg/kg): 0/6
females with pregnancy confirmed at GD 21 ([8]; 300 mg/kg): 0/8
AUC(0-t) [8, 10]: 4380 ng·h/mL
Cmax [8, 10]: 291 ng/mL
external or visceral malformations or variations ([8]; surviving fetuses, 30 mg/kg/day): did not produce any external or visceral malformations or variations
